Measurements taken from BindingDB's records for doi:10.1021/jm900414x (University of Dundee, 2009).

Target: T1, Pteridine reductase (Trypanosoma brucei brucei, UniProt O76290)
T1 sequence (O76290 whole entry): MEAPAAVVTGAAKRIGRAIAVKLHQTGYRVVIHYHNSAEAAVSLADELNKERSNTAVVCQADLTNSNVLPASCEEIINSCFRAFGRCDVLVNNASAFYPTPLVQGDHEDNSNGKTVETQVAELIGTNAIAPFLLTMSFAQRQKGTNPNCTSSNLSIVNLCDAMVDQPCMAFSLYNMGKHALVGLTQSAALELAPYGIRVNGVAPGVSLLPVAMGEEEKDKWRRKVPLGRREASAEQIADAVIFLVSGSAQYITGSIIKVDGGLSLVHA
Test: PTR1 Activity Assay
Settings: pH 6; 23 °C
Method: TbPTR1 activity was measured in 96-well microtiter plates via reduction of cytochrome c (cytc) as a result of the enzymatic production of tetrahydrobiopterin (H4B). Enzyme activity was monitored by reading absorbance at 550 nm within the linear phase of reaction. Ki (app) values were calculated using a modified Morrison equation.

Ki: > 200 µM
Structure (SMILES): CCn1c(N)nc2ccccc21 [2-aminobenzimidazole deriv., 7]
